For experiment [1], the system named is IL-6 levels in human whole blood stimulated with a TLR2 agonist. Briefly: IRAK4 Whole Blood Assay (lipoteichoic acid/TLR2-stimulated IL-6). Type of experiment: cell-based. To be noted: lipoteichoic acid 10 μg/mL, IL-6 readout. On the procedure: Human whole blood containing the anti-coagulant ACD-A was plated in 384-well plate (25 μL/well) and incubated with compounds for 60 minutes at 37° C. in a 5% CO2 incubator. The blood was stimulated with a TLR2 agonist, 10 μg/mL final concentration of lipoteichoic acid (Invivogen, San Diego, Calif.) in 25 μL RPMI (Gibco) for 5 hours in a 5% CO2 incubator. At the end of the incubation, plates were centrifuged at 2300 rpm for 5 minutes. Supernatants were harvested and analyzed for IL-6 levels by Flow Cytometry beads assay (BD Biosciences, San Jose, Calif.).

The target in experiment [2] is IRAK4 (Homo sapiens (Human), UniProt Q9NWZ3). The experiment can be described thus: IRAK4 Inhibition Assay. The format is biochemical. As to conditions: ATP 500 μM; IRAK4 0.6 nM. On the procedure:
The assays were performed in U-bottom 384-well plates. The final assay volume was 30 μL prepared from 15 μL additions of enzyme and substrates (fluoresceinated peptide and ATP) and test compounds in assay buffer (20 mM HEPES pH 7.2, 10 mM MgCl2, 0.015% Brij 35 and 4 mM DTT). The reaction was initiated by the combination of IRAK4 with substrates and test compounds. The reaction mixture was incubated at room temperature for 60 min. and terminated by adding 45 μL of 35 mM EDTA to each sample. The reaction mixture was analyzed on the Caliper LABCHIP® 3000 (Caliper, Hopkinton, Mass.) by electrophoretic separation of the fluorescent substrate and phosphorylated product. Inhibition data were calculated by comparison to no enzyme control reactions for 100% inhibition and vehicle-only reactions for 0% inhibition. The final concentrations of reagents in the assays are ATP, 500 μM; FL-IPTSPITTTYFFFKKK peptide 1.5 μM; IRAK4, 0.6 nM; and DMSO, 1.6%.

Structures are written as SMILES.

Sequence of IRAK4 (Q9NWZ3 whole entry): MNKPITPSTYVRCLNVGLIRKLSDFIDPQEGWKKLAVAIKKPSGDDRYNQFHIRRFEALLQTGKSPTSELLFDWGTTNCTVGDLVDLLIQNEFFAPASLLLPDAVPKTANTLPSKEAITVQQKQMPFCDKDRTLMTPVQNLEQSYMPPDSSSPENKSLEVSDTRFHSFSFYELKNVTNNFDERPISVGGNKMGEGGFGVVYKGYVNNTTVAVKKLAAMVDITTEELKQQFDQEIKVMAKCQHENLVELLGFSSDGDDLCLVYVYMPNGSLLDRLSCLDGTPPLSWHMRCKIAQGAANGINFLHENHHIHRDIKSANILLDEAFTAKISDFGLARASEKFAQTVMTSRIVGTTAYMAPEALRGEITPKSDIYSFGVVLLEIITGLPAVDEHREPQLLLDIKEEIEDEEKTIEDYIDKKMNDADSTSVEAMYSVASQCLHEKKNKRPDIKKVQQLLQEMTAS

Consider `CC(C)(O)[C@H](F)CNC(=O)c1cnc(-c2cnn3cc(Cl)cnc23)cc1NC1CCCOC1` (single isomer, unassigned) [Example 3], for which the EC50 (usually the concentration needed to bring the measured effect to its halfway point) in experiment [1] (Homo sapiens) was determined as 0.38 µM. Further, in experiment [2], the IC50 (as a rule, the concentration that inhibits the measured activity by half) was 0.006 µM.
In experiment [1], `CC(C)(O)[C@H](F)CNC(=O)c1cnc(-c2cnn3cc(Cl)cnc23)cc1NC1CCCOC1` (single isomer, unassigned) [Example 4] returned an EC50 of 0.68 µM. In experiment [2], the IC50 was 0.013 µM.
`COC1CC(Nc2cc(-c3cnn4cc(Cl)cnc34)ncc2C(=O)NC[C@@H](F)C(C)(C)O)CC1(F)F` (single isomer, unassigned) [Example 13] showed an EC50 in experiment [1] (Homo sapiens) of 4.45 µM. In addition, the IC50 in experiment [2] was determined as 0.007 µM.
With `CC(C)OC1CC(Nc2cc(-c3cnn4cc(Cl)cnc34)ncc2C(=O)NC[C@@H](F)C(C)(C)O)CC1(F)F` (single isomer, unassigned) [Example 16], it took 1.09 µM to reach a half-maximal effect in experiment [1] (EC50). Further, the IC50 in experiment [2] stood at 0.006 µM.
With `CC(C)(O)[C@H](F)CNC(=O)c1cnc(-c2cnn3cc(C#N)cnc23)cc1Nc1ccc(C(N)=O)cc1` [Example 112, (R)-4-((4-carbamoylphenyl)amino)-6-(6-cyanopyrazolo[1,5-a]pyrimidin-3-yl)-N-(2-fluoro-3-hydroxy-3-methylbutyl)nicotinamide], the EC50 in experiment [1] (Homo sapiens) worked out at 0.82 µM.
Turning to `CC(C)(O)[C@H](F)CNC(=O)c1cnc(-c2cnc3cccnn23)cc1NC1CCOCC1` [Example 132, (R)—N-(2-fluoro-3-hydroxy-3-methylbutyl)-6-(imidazo[1,2-b]pyridazin-3-yl)-4-((tetrahydro-2H-pyran-4-yl)amino)nicotinamide], in experiment [2], the IC50 turned out to be 0.009 µM.
Turning to `CC(C)(O)[C@H]1CC[C@H](NC(=O)c2cnc(-c3cnc4cccnn34)cc2NC2COC2)CC1` [Example 133, N-((1r,4r)-4-(2-hydroxypropan-2-yl)cyclohexyl)-6-(imidazo[1,2-b]pyridazin-3-yl)-4-(oxetan-3-ylamino)nicotinamide], in experiment [2], the IC50 amounted to 0.036 µM.
For `C[C@@H](CO)Nc1cc(-c2cnc3cccnn23)ncc1C(=O)NC[C@@H](F)C(C)(C)O` [Example 136, N—((R)-2-fluoro-3-hydroxy-3-methylbutyl)-4-(((S)-1-hydroxypropan-2-yl)amino)-6-(imidazo[1,2-b]pyridazin-3-yl)nicotinamide], the IC50 in experiment [2] stood at 0.019 µM.
As to `C[C@@H](CO)Nc1cc(-c2cnc3cccnn23)ncc1C(=O)NCCC(C)(C)O` [Example 137, (S)—N-(3-hydroxy-3-methylbutyl)-4-((1-hydroxypropan-2-yl)amino)-6-(imidazo[1,2-b]pyridazin-3-yl)nicotinamide], the half-inhibitory concentration (IC50) in experiment [2] came to 0.075 µM.
Take `CC(C)(O)CNc1cc(-c2cnc3cccnn23)ncc1C(=O)NC[C@@H](F)C(C)(C)O` [Example 138, (R)—N-(2-fluoro-3-hydroxy-3-methylbutyl)-4-((2-hydroxy-2-methylpropyl)amino)-6-(imidazo[1,2-b]pyridazin-3-yl)nicotinamide]: the IC50 in experiment [2] was 0.062 µM.
Take `CC(C)Nc1cc(-c2cnc3ccc(NCCO)nn23)ncc1C(=O)NC[C@@H](F)C(C)(C)O` [Example 139, (R)—N-(2-fluoro-3-hydroxy-3-methylbutyl)-6-(6-((2-hydroxyethyl)amino)imidazo[1,2-b]pyridazin-3-yl)-4-(isopropylamino)nicotinamide]: the 50% inhibitory concentration (IC50) in experiment [2] worked out at 0.003 µM.
As to `CC(C)(O)[C@H](F)CNC(=O)c1cnc(-c2cnc3ccc(NCCO)nn23)cc1NC1COC1` [Example 140, (R)—N-(2-fluoro-3-hydroxy-3-methylbutyl)-6-(6-((2-hydroxyethyl)amino)imidazo[1,2-b]pyridazin-3-yl)-4-(oxetan-3-ylamino)nicotinamide], the IC50 in experiment [2] turned out to be 0.006 µM.
Turning to `COc1ccc2ncc(-c3cc(NC(C)C)c(C(=O)NC[C@@H](F)C(C)(C)O)cn3)n2n1` [Example 149, (R)—N-(2-fluoro-3-hydroxy-3-methylbutyl)-4-(isopropylamino)-6-(6-methoxyimidazo[1,2-b]pyridazin-3-yl) nicotinamide], in experiment [2], the IC50 came out at 0.018 µM.
Take `CC(C)Nc1cc(-c2cnc3ccc(N)nn23)ncc1C(=O)NC[C@@H](F)C(C)(C)O` [Example 150, (R)-6-(6-aminoimidazo[1,2-b]pyridazin-3-yl)-N-(2-fluoro-3-hydroxy-3-methylbutyl)-4-(isopropylamino)nicotinamide]: the IC50 in experiment [2] came to 0.012 µM.
Regarding `CC(C)Nc1cc(-c2cnc3ccc(NCC(C)(C)O)nn23)ncc1C(=O)NC[C@@H](F)C(C)(C)O` [Example 151, (R)—N-(2-fluoro-3-hydroxy-3-methylbutyl)-6-(6-((2-hydroxy-2-methylpropyl)amino)imidazo[1,2-b]pyridazin-3-yl)-4-(isopropylamino)nicotinamide], the IC50 in experiment [2] is 0.011 µM.
As for `CC(C)Nc1cc(-c2cnc3ccc(N4CC[C@@H](O)C4)nn23)ncc1C(=O)NC[C@@H](F)C(C)(C)O` [Example 152, N—((R)-2-fluoro-3-hydroxy-3-methylbutyl)-6-(6-((R)-3-hydroxypyrrolidin-1-yl)imidazo[1,2-b]pyridazin-3-yl)-4-(isopropylamino)nicotinamide], in experiment [2], the IC50 amounted to 0.029 µM.
Turning to `COc1cnn2c(-c3cc(NC(C)C)c(C(=O)NC[C@@H](F)C(C)(C)O)cn3)cnc2c1` [Example 153, (R)—N-(2-fluoro-3-hydroxy-3-methylbutyl)-4-(isopropylamino)-6-(7-methoxyimidazo[1,2-b]pyridazin-3-yl)nicotinamide], in experiment [2], the IC50 was found to be 0.013 µM.
Same read-out and setting: for `COc1cnn2c(-c3cc(NC4COC4)c(C(=O)NC[C@@H](F)C(C)(C)O)cn3)cnc2c1` [Example 154, (R)—N-(2-fluoro-3-hydroxy-3-methylbutyl)-6-(7-methoxyimidazo[1,2-b]pyridazin-3-yl)-4-(oxetan-3-ylamino)nicotinamide] the value was 0.016 µM; for `CC(C)Nc1cc(-c2cnc(-c3cccc(C#N)c3)o2)ncc1C(=O)NC[C@@H](F)C(C)(C)O` [Example 155, (R)-6-(2-(3-cyanophenyl)oxazol-5-yl)-N-(2-fluoro-3-hydroxy-3-methylbutyl)-4-(isopropylamino)nicotinamide], 0.055 µM.
On to `CC(C)(C)Nc1cc(-c2cnc3cc(C#N)cnn23)ncc1C(=O)NC[C@@H](F)C(C)(C)O` [Example 187, (R)-4-(tert-butylamino)-6-(7-cyanoimidazo[1,2-b]pyridazin-3-yl)-N-(2-fluoro-3-hydroxy-3-methylbutyl)nicotinamide], for which, in experiment [1] (Homo sapiens), it took 0.2 µM to reach a half-maximal effect (EC50).
On the same count and under the same terms, the figure for `COC(C)(C)[C@H]1CC[C@H](NC(=O)c2cnc(-c3cnc4cc(Cl)cnn34)cc2NC2COC2)CC1` [Example 191, 6-(7-chloroimidazo[1,2-b]pyridazin-3-yl)-N-((1r,4r)-4-(2-methoxypropan-2-yl)cyclohexyl)-4-(oxetan-3-ylamino)nicotinamide] is 0.63 µM; for `CC(C)(O)[C@H](F)CNC(=O)c1cnc(-c2cnn3cc(C#N)cnc23)cc1Nc1ccn(CC(F)F)c1` [Example 225, (R)-6-(6-cyanopyrazolo[1,5-a]pyrimidin-3-yl)-4-((1-(2,2-difluoroethyl)-1H-pyrrol-3-yl)amino)-N-(2-fluoro-3-hydroxy-3-methylbutyl)nicotinamide] it is 0.08 µM.
On the same count and under the same terms, the figure for `CC(C)(O)[C@H](F)CNC(=O)c1cnc(-c2cnn3cc(Cl)cnc23)cc1Nc1ccn(CC(F)F)c1` [Example 228, (R)-6-(6-chloropyrazolo[1,5-a]pyrimidin-3-yl)-4-((1-(2,2-difluoroethyl)-1H-pyrrol-3-yl)amino)-N-(2-fluoro-3-hydroxy-3-methylbutyl)nicotinamide] is 0.25 µM.
